Experimental data taken from paper PMC8667043, “First-in-Class Inhibitors of the Ribosomal Oxygenase MINA53” (Journal of Medicinal Chemistry, 2021).

Tests used:
[1] = tested on: HT-29 colon carcinoma; assay: MTT cell viability assay; assay type: cell-based, human; conditions: 72, 96, 120 h, 10 to 100 μM, 10′ to a similar extent as 10
Protocol: (§1) Human commercially available established cancer cell lines HT-29 colon carcinoma (ATCC, HTB-38), U-87MG glioblastoma (ATCC, HTB-14), and MNK-45 gastric cancer (a gift from Dr. M. Broggini, Mario Negri Institute) were cultured in RPMI medium (Euroclone, Milan, IT) supplemented with 10% inactivated fetal bovine serum (HyClone, Thermo Scientific, South Logan, UT), 1% L-glutamine (Euroclone), and 100 μg/mL penicillin/streptomycin (Euroclone). HEK293T and HeLa cells were cultured in Dulbecco’s Modified Eagle Medium (DMEM, Gibco) supplemented with 10% (v/v) fetal bovine serum (FBS, Sigma) and 100 international units/mL (IU/mL) penicillin and 100 μg/mL streptomycin (Gibco). The cells were routinely tested for mycoplasma contamination and STR-authenticated.
(§2) Twenty-four hours following seeding, exponentially growing cells were treated with the different compounds at concentrations ranging from 10 to 100 μM for 72–120 h. Aqueous DMSO (0.5%, v/v) was used as a control (untreated). Cell viability was determined by the 3-(4,5-dimethylthiazol-2-yl)-2,5-diphenyltetrazolium bromide (MTT) colorimetric assay (Sigma-Aldrich). In summary, exponentially growing cancer cells were seeded in sextuplicate in 96-well culture plates (1.5 × 10^3 cells/well). After 24 h, the compounds were added at concentrations ranging from 10 to 100 μM. The effect of compounds on cancer cell proliferation was assessed by measuring the MTT dye absorbance of the cells as reported.[52] For combination treatments, the cells were treated with each of three compounds, either alone or in combination with doxorubicin. In particular, U-87MG cells were treated with doxorubicin alone or in combination with different MINA53 inhibitors for 24 h. The effect of different compounds or combinations (drug concentration ratio 1:20, doxorubicin: compound) on U-87MG cancer cell viability was assessed by measuring the MTT dye absorbance of cells. The interaction between doxorubicin (Doxo) and different compounds was evaluated based on the combination index (CI) using the CI equation through CalcuSyn software (Biosoft, Cambridge, U.K.). Synergism CI < 0.9, additivity 0.9 < CI < 1.1, antagonism CI > 1.1.

[2] = tested on: MNK-45 gastric carcinoma; assay: MTT cell viability assay; assay type: cell-based, human; conditions: 72, 96, 120 h, 10 to 100 μM, 10′ to a similar extent as 10
Protocol: as §1, §2

[3] = tested on: U-87MG malignant glioma; assay: MTT cell viability assay; assay type: cell-based, human; conditions: 72, 96, 120 h, 10 to 100 μM, 10′ to a similar extent as 10
Protocol: as §1, §2

[4] = tested on: HeLa cervical carcinoma; assay: MTT cell viability assay; assay type: cell-based; conditions: 72, 96, 120 h
Protocol: as §1
as §2, with “For combination treatments, the cells were treated with each of three compounds, either alone or in combination with doxorubicin. In particular, U-87MG cells were treated with doxorubicin alone or in combination with different MINA53 inhibitors for 24 h.” left out, “Synergism CI < 0.9, additivity 0.9 < CI < 1.1, antagonism CI > 1.1.” left out
(§3) Figure S17. Antiproliferative effects of M INA53 inhibitors on HeLa (A) and HEK293T (B) cells as determined by the MTT method after exposure for 72, 96, and 120 h to the negative control 1, and the MINA53 inhibitors 9 and 10. […]

[5] = tested on: HEK293T; assay: MTT cell viability assay; assay type: cell-based, human; conditions: 72, 96, 120 h
Protocol: as §1
as §2, with “For combination treatments, the cells were treated with each of three compounds, either alone or in combination with doxorubicin. In particular, U-87MG cells were treated with doxorubicin alone or in combination with different MINA53 inhibitors for 24 h.” left out, “Synergism CI < 0.9, additivity 0.9 < CI < 1.1, antagonism CI > 1.1.” left out
as §3

[6] = biological target: T1, HA-tagged MINA53 (Homo sapiens, UniProt Q8IUF8); assay: Substrate trapping by anti-HA immunoprecipitation (RPL27A); assay type: cell-based; conditions: HEK293T, HeLa, U-87MG cells; 100 μM, 18 h
T1 construct: expressed in transfected cells; host or cells: HEK293T, HeLa, U-87MG (transient, pEF6 vector)
T1 sequence (Q8IUF8 whole entry): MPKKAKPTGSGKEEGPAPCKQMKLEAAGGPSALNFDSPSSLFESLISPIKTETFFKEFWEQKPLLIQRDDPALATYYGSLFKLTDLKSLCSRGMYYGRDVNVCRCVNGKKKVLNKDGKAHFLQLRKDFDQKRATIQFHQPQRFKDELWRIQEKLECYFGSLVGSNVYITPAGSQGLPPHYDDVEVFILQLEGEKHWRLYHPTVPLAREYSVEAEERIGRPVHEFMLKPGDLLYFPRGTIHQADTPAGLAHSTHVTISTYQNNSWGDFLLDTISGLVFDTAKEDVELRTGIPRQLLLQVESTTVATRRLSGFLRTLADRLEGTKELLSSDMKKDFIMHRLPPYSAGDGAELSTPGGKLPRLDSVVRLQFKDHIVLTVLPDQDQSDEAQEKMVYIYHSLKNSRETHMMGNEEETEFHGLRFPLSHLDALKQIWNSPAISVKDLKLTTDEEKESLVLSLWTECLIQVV
Protocol: (§4) Proteins were transferred onto nitrocellulose or PVDF membranes and incubated with rabbit γ-H2AX (#9718, Cell Signaling Technologies, MA) anti-GAPDH (Sc47724, Santa Cruz Biotechnology, Santa Cruz, CA), rabbit anti-RPL27A (Abcam, ab74731), goat anti-RPL8 (Abcam, ab63941), horseradish peroxidase (HRP)-conjugated anti-HA (Roche, 12013819001), and HRP-conjugated anti-β-actin (Abcam, ab-49900).
For immunoprecipitation, the cells were harvested on ice and lysed by rotation for 1 h at 4 °C in JIES buffer. The cell debris was subsequently pelleted by centrifugation (10 min at 21 910g at 4 °C), and the supernatant was incubated overnight at 4 °C with Pierce anti-HA agarose beads (Thermo Scientific, 26181). The next day, the beads were washed 6 times with JIES buffer before the immunoprecipitates were eluted for 15 min at 1400 rpm at room temperature using 1 mg/mL HA peptide (Thermo Scientific, 26184) dissolved in JIES buffer. The eluted samples were then prepared in 1× Laemmli loading buffer (6x: 125 mM Tris-HCl [pH 6.8], 6% (w/v) SDS, 50% (v/v) glycerol, 225 mM dithiothreitol (DTT), and 0.1% (w/v) bromophenol blue) and boiled for 5 min for detection by western blot.
Plasmid DNA transfections were performed using a FuGENE 6 transfection reagent (Promega, E2691). Briefly, a transfection mix of DNA and transfection reagent at a ratio of 1:3 was made up in Opti-MEM (Gibco, 31985070) and incubated for 30 min at room temperature before the complexes were added to the cells. A total of 500 ng of DNA was used per mL of culturing medium. The cells were seeded 24 h prior to transfection, and cell treatments were performed 24 h post-transfection.
Figure S18. MINA53 substrate trapping with inhibitors 9 and 10 in cells. HEK293T (A), HeL a (B) and U-87MG (C) cel ls transiently expressing an empty (EV), wild- type (WT) or catalytically […]
control for 18 h prior toanti -HAimmunoprecipitation (IP). Anti -HA IPs were immunoblotted for RPL27A (17 kDa) and HA. β -Actin was used as loading control. […]

[7] = tested on: U-87MG cells; assay: Western blot of H2AX serine 139 phosphorylation (γ-H2AX); assay type: cell-based, human; set-up: dose or concentration left out as unconfirmed; conditions: time-dependent (2, 4, 8 h)
Protocol: as §4
Figure S19. Western blot analysis and relative densitometric analysis of the phosphorylated form of H2AX (ser139) on U-8 7MG glioma cells exposed for the indicated times to 1 (negative control), […]
Doxorubicin was used as a positive control (0.5 μM, 8 h). GAPDH expression was used as a control loading. Results are express ed as f old changes over […]

[8] = tested on: U-87MG cells; assay: MTT cell viability, alone or in combination with doxorubicin; combination index; assay type: cell-based, human; conditions: for cell viability reduction in cotreatment with doxorubicin: 1 μM doxorubicin + 20 μM compound; for cell viability reduction in cotreatment with doxorubicin / cell viability, single compound treatment / sensitization of U-87MG cells to doxorubicin: 24 h; for combination index value with doxorubicin: less than 1 synergistic, higher than 1 antagonist
Protocol: as §2

[9] = tested on: U-87MG cells; assay: Flow cytometric analysis of cell cycle distribution and Sub-G1 peak (PI staining); assay type: cell-based, human; conditions: 24 h; for percentage of apoptotic cells (Sub-G1), with doxorubicin: 10 μM compound + doxorubicin 0.5 μM; for accumulation of cells in the G2/M phase of the cell cycle / percentage of apoptotic cells (Sub-G1), compound alone: 10 μM
Protocol: Cell cycle distribution and apoptosis were assayed by staining floating and adherent cells with propidium iodide ([…] RNase A and 20 μg/mL propidium iodide) for 45 min. Flow cytometric analyses were performed using Epics XL apparatus (Beckman Coulter). Ten thousand events were collected from each sample, and data were processed using Flowing software.

In the case of O=C(O)c1cnc(SCCc2ccccc2)[nH]c1=O [compound 9, 2-(Phenethylthio)-3,4-dihydro-4-oxopyrimidine-5-carboxylic Acid], the “effect on cell viability, HT-29” value [1] is reported as “only a marginal effect”, the “effect on cell viability, MNK-45” value [2] is reported as “sensitive” and the “effect on cell viability, U-87MG” value [3] is reported as “sensitive”. The “effect on cell viability, HeLa” value [4] was “sensitive”, the “effect on cell viability, HEK293T” value [5] was “sensitivity” and the “binding (trapping) of endogenous RPL27A substrate to HA-tagged MINA53” value (“binding (trapping)” for short) [6] was “increased binding”. For the same molecule, the “γ-H2AX (H2AX serine 139 phosphorylation)” value [7] was “strong γ-H2AX increase”, the “cell viability reduction in cotreatment with doxorubicin” value [8] was “around 75%” and the “cell viability, single compound treatment” value [8] was “reduced cell viability in a dose-dependent manner”. For the same molecule, the “sensitization of U-87MG cells to doxorubicin” value [8] was “dose-dependent sensitization”, the “combination index value with doxorubicin” value [8] was “less than 1” and the “percentage of apoptotic cells (Sub-G1), with doxorubicin” value [9] was “about 60%”. The “accumulation of cells in the G2/M phase of the cell cycle” value (“accumulation of cells” for short) [9] was “induced accumulation of cells in the G2/M phase” and the “percentage of apoptotic cells (Sub-G1), compound alone” value [9] was “about 30%”.

For O=C(O)c1cnc(SCCCc2ccccc2)[nH]c1=O [compound 10, 2-((3-Phenylpropyl)thio)-3,4-dihydro-4-oxopyrimidine-5-carboxylic Acid], the “effect on cell viability, HT-29” value [1] was “only a marginal effect”, the “effect on cell viability, MNK-45” value [2] was “sensitive” and the “effect on cell viability, U-87MG” value [3] was “sensitive”. The “effect on cell viability, HeLa” value [4] was “sensitive”, the “effect on cell viability, HEK293T” value [5] was “sensitivity” and the “binding (trapping)” value [6] was “increased binding”. For the same molecule, the “γ-H2AX (H2AX serine 139 phosphorylation)” value [7] was “strong γ-H2AX increase”, the “cell viability reduction in cotreatment with doxorubicin” value [8] was “around 75%” and the “cell viability, single compound treatment” value [8] was “reduced cell viability in a dose-dependent manner”. The “sensitization of U-87MG cells to doxorubicin” value [8] was “dose-dependent sensitization”, the “combination index value with doxorubicin” value [8] was “less than 1” and the “percentage of apoptotic cells (Sub-G1), with doxorubicin” value [9] was “about 60%”. For the same molecule, the “accumulation of cells” value [9] was “induced accumulation of cells in the G2/M phase” and the “percentage of apoptotic cells (Sub-G1), compound alone” value [9] was “about 30%”.

With O=C(O)c1c[nH]c(=S)[nH]c1=O [compound 1] the “effect on cell viability, HT-29” value [1] was “no effect”, the “effect on cell viability, MNK-45” value [2] was “no effect” and the “effect on cell viability, U-87MG” value [3] was “no effect”. The “effect on cell viability, HeLa” value [4] was “no effect”, the “effect on cell viability, HEK293T” value [5] was “no effect” and the “binding (trapping)” value [6] was “not”. The “γ-H2AX (H2AX serine 139 phosphorylation)” value [7] was “not increased”, the “combination index value with doxorubicin” value [8] was “higher than 1” and the “accumulation of cells” value [9] was “not”.
